Reference: patent US20240207282A1, “METHOD OF INCREASING CHAPERONE MEDIATED AUTOPHAGY BY STABILIZING THE INTERACTION OF RETINOIC ACID RECEPTOR-ALPHA AND AN INHIBITOR” (ALBERT EINSTEIN COLLEGE OF MEDICINE, priority 2021, published 2024)

What was measured:
[1] = In vitro stability in liver microsomes; assay type: in vitro ADME; settings: human liver microsomes
Experimental: (§1) In vitro solubility in the following conditions A) HBSS/HEPES 10 mM/BSA 0.1% pH 6 B) HBSS/HEPES 10 mM/BSA 0.1% pH 7.4 C) TRIS/BSA 0.1% PBS (pH 7.4 and at indicated doses were measured by Nephelometry using the NEPHELOstar Galaxy apparatus (BMG Lab Technologies). In vitro stability in human, mouse and rat liver microsomes and permeability using a bidirectional permeability assay with CaCo-2 cells (pH 6.5/7.4) assays were performed with standard methodology and analyzed by LC-MS/MS. at SIMM-SERVIER joint Biopharmacy Laboratory. In silico ADME properties calculated by QikProp (Schrodinger, LLC) analysis and ADME predictions for CA39 (left) and CA77 (right).

neuron-related cells = experiment: CMA activity, KFERQ-PS-Dendra reporter in neuron-related cells; assay type: cell-based, mouse; settings: for CMA activation: neuronal-related mouse cells
Experimental: Cells: NIH3T3 mouse fibroblasts and the N2a neuroblastoma cell line were obtained from the American Type Culture Collection and were validated by genomic PCR. Primary human fibroblasts (GM01651) were from Coriell Repository. All the cells lines were tested for mycoplasma contamination using DNA staining protocol with Hoechst 33258 dye. Knock-down of NCoR1 was done using lentiviral mediated shRNA (SHCLNG-NM_011308) from the Sigma Mission library following standard procedures. Efficiency of knock-down was tested by immunoblot. Cell viability was measured using the CellTiter-Blue kit (Promega) 24 h after the addition of the different stressors according to manufacturer's instructions.
CMA activity: Cells were transduced with lentivirus carrying the KFERQ-PS-Dendra reporter as before. Cells were photoactivated by exposure to a 3.5 mA (current constant) light emitting diode (LED: Norlux, 405 nm) for 3 min and then plated in glass-bottom 96 well plates. At the desired times, cells were fixed with 4% PFA and imaged using high-content microscopy (Operetta system, Perkin Elmer). Images were quantified using the manufacturer's software in a minimum of 1,200 cells in 9 independent fields per well. […] To avoid con-funding effects for drug-induced changes in cell volume or adherence to the plate that could bring a fraction of the cells per field outside of focus, we set a threshold to count only cells that have at least 1/10 of the average number of […] detected in the untreated wells for each cell type (3-4 puncta/cell in the case of NIH3T3 and N2a cells and 5 puncta/cell in primary human fibroblasts). […] Slices were mounted in DAPI-Fluoromount-G to highlight the cell nucleus and allow quantification of puncta per cell. Images were acquired in x-y-z planes with an Axiovert 200 fluorescence microscope (Carl Zeiss Ltd) with a ×63 objective and 1.4 numerical aperture, mounted with an ApoTome.2 slider or with a Confocal microscope (TCS SP5; Leica) using an HCX Plan Apo CS×63.0 1.40 NA oil objective and the Leica Application Suite X (LAS X).

CMA network = experiment: Comparative transcriptomic analysis / qPCR of CMA network; assay type: cell-based, mouse; settings: compared to AR7
Experimental: mRNA-qPCR: RNA was extracted from individual retinas. Total RNA from retinas was extracted using TRIzol Reagent (Invitrogen), and reverse transcription performed using the High-Capacity cDNA Reverse Transcription Kit (Applied Biosystems) according to the manufacturer's instructions. Quantitative real-time PCR was performed in a Light Cycler 480 Instrument (Roche) with Taqman Universal PCR Master Mix using Taqman assays (Life Tech-nologies). The following probes were used: Mm01184405_m1 (rhodopsin), F-5′-CTTAGCTTCTGGGATGC CCC-3′, R-5′-[…]-3′ (lamp2a) F-5′-AA GGACTCCTA TAGTGGG TGACGA-3′, R-5′-[…]-3′ (mouse β-actin).
Microarray: Total RNA of the treated cells was extracted using TRIzol (Invitrogen) and purified with RNeasy chromatography (Qiagen). Cy3-labeled RNA (0.6 μg) from each condition were hybridized to Agilent Mouse 8×60K. Data were processed using the oligo package and normalized using Robust Multiarray Average (RMA) method. Gene set was filtered to remove genes without Entrez or GO annotation (21912 genes out of 55682) and genes with an […]. The full microarray Gomez-Sintes et al. raw data will be deposited in GEO upon acceptance of the manuscript. Pathway analysis was performed using the STRING database ([…]).
CMA index was calculated using data set from Ly (J. Proteome Research (2016) 15: 1350-1359), Gao (2020), and Lane (2020). Briefly, each element of the CMA network was attributed a weight. As LAMP-2A is the rate limiting component of CMA, it was given a weight of 2. Every other element received a weight of 1. Then, every element was attributed direction score that is +1 or −1 based on the known effect of a given element on CMA activity. The score was then calculated as the weighted/directed average of expression counts of every element of the CMA network.

[2] = In vitro solubility by nephelometry; assay type: physicochemical
Experimental: as §1

[3] = Pharmacokinetics in mice (plasma and brain); assay type: in vivo, mouse; settings: mice; for brain to plasma ratio: i.v. or p.o.
Experimental: ICR (CD-1) male mice were fasted at least three hours and water was available ad libitum before the study. Animals were housed in a controlled environment, target conditions: temperature 18 to 29° C., relative humidity 30 to 70%. Temperature and relative humidity was monitored daily. An electronic time controlled lighting system was used to provide a 12 hr light/12 hr dark cycle. 3 mice for each indicated time point were administered 30 mg/Kg CA39 or CA77 by oral gavage or 1 mg/Kg CA39 or CA77 by intravenous injection using 30% PEG-400, 65% D5W (5% dextrose in water), 5% Tween-80 vehicle. Mice were sacrificed, and brain samples were harvested at 0 hr, 0.25 hr, 0.5 hr, 1 hr, 2 hr, 4 hr, 8 hr, 24 hr, and analyzed for CA39 or CA77 levels using LC-MS/MS. Pharmacokinetics parameters were calculated using Phoenix WinNonlin 6.3. Experiments performed at SIMM-SERVIER joint Biopharmacy Laboratory.

NIH3T3 = experiment: Intracellular proteolysis of long half-life proteins (3H-leucine); assay type: cell-based, mouse; settings: 10 μM; duration of increase after addition
Experimental: Proteolysis was calculated from aliquots of the medium taken at different times and precipitated in trichloroacetic acid, as the amount of acid-precipitable radioactivity transformed to acid-soluble radioactivity at each time.

In the case of `Clc1ccc2c(c1)OCC(c1ccc(-c3ccccc3)cc1)=N2` [CA39], the metabolic stability [1] is reported as “high to intermediate”, the CMA activation (neuron-related cells) is reported as “efficiently activate CMA” and the “predicted CMA activation score” value (CMA network) is reported as “higher”. The solubility [2] was “reasonable solubility”, the half-life ([3]; male, ICR (CD-1), mouse, plasma, intravenous, 1 mg/kg, route not printed (second pair of values), read-out: half-life in plasma (converted)) was 8.2 h and the “blood brain barrier crossing” value [3] was “efficiently crossed the brain blood barrier”. For the same molecule, the half-life in brain ([3]; IV 1 mg/kg) was 8 h, the half-life in brain ([3]; PO 30 mg/kg) was 10 h and the half-life in plasma ([3]; PO 30 mg/kg) was 7.5 h. The “brain to plasma ratio” value [3] was “high” and the “intracellular rates of degradation of long-lived proteins” value (NIH3T3) was “remained upregulated 24 h after adding”.

For `CC(=O)Nc1ccc(C2=Nc3ccc(Cl)cc3OC2)cc1` [CA77], the metabolic stability [1] was “high to intermediate”, the “CMA activation after removal of compound” value (neuron-related cells; compound removed from the media) was “persisted and even further increased after the compound was removed from the media” and the CMA activation (neuron-related cells) was “efficiently activate CMA”. For the same molecule, the “predicted CMA activation score” value (CMA network) was “higher”, the solubility [2] was “reasonable solubility” and the “blood brain barrier crossing” value [3] was “efficiently crossed the brain blood barrier”. The half-life in brain ([3]; IV 1 mg/kg) was 1.8 h, the half-life in brain ([3]; PO 30 mg/kg) was 4.2 h and the half-life in plasma ([3]; PO 30 mg/kg) was 2.2 h. For the same molecule, the “brain to plasma ratio” value [3] was “high” and the “intracellular rates of degradation of long-lived proteins” value (NIH3T3) was “remained upregulated 24 h after adding”.
